Source: article PMC6005271

Legend:
[1] = Double Williamson ether macrocyclisation of preformed bipyridine precursor with a bis-electrophile, high dilution (previous syntheses); settings: the molecule shown is the open-chain precursor; 25-membered ring; DMF; 72.0 h; cited from earlier work
[2] = Ni-mediated reductive aryl-aryl (2-halopyridine) homo/cross-coupling forming the 2,2'-bipyridine C-C bond; [Ni(PPh3)2Br2] 1 eq, PPh3 2 eq, Mn 10 eq, NEt4I 1 eq; slow addition of dihalide over 4 h; settings: DMF, 50.0 mM, 50.0 °C

## Oc1ccc(-c2cccc(-c3cccc(CCCc4ccc(OCc5ccc(CBr)cc5)cc4)n3)n2)cc1
[1]
  ring closure, isolated yield: 6%

## c1cc2cc(c1)-c1cccc(n1)CCCc1ccc(cc1)OCCCCOc1ccc(cc1)COC2
[2]; from Brc1cccc(CCCc2ccc(OCCCCOc3ccc(COCc4cccc(I)c4)cc3)cc2)n1, 26-membered ring, 5.0 h
  ring closure, isolated yield: 24%

## c1cc2nc(c1)-c1cccc(n1)-c1ccc(cc1)OCc1ccc(cc1)COc1ccc(cc1)CCC2
[2]; from Brc1cccc(CCCc2ccc(OCc3ccc(COc4ccc(-c5cccc(Br)n5)cc4)cc3)cc2)n1, 25-membered ring, 5.0 h
  ring closure, isolated yield: 41%

## c1cc2nc(c1)-c1cccc(n1)OCCc1ccc(cc1)OCCCCOc1ccc(cc1)CCO2
[2]; from Brc1cccc(OCCc2ccc(OCCCCOc3ccc(CCOc4cccc(Br)n4)cc3)cc2)n1, 26-membered ring, 5.0 h
  ring closure, isolated yield: 65%

## c1cc2nc(c1)-c1cccc(n1)CCCc1ccc(cc1)OCCCCOc1ccc(cc1)CCC2 [1a -> 2a]
[2]; from Brc1cccc(CCCc2ccc(OCCCCOc3ccc(CCCc4cccc(Br)n4)cc3)cc2)n1, 26-membered ring, 5.0 h
  ring closure, isolated yield: 71%

## c1cc2nc(c1)-c1cccc(n1)COCc1ccc(cc1)OCCCCOc1ccc(cc1)COC2 [1b -> 2b]
[2]; from Brc1cccc(COCc2ccc(OCCCCOc3ccc(COCc4cccc(Br)n4)cc3)cc2)n1, 26-membered ring, 5.0 h
  ring closure, isolated yield: 70%

## c1cc2nc(c1)-c1cccc(n1)COCc1ccc(cc1)OCCCCCCCCCCOc1ccc(cc1)COC2 [1c -> 2c]
[2]; from Brc1cccc(COCc2ccc(OCCCCCCCCCCOc3ccc(COCc4cccc(Br)n4)cc3)cc2)n1, 32-membered ring, 5.0 h
  ring closure, isolated yield: 67%

## c1cc2nc(c1)-c1cccc(n1)-c1ccc(cc1)OCCOCCOCCOCCOc1ccc-2cc1 [1e -> 2e]
[2]; from Brc1cccc(-c2ccc(OCCOCCOCCOCCOc3ccc(-c4cccc(Br)n4)cc3)cc2)n1, 27-membered ring, 5.0 h
  ring closure, isolated yield: 73%

## c1cc2nc(c1)-c1cccc(n1)COCc1ccc(cc1)OCCCCOc1ccc(cc1)CCC2 [1f -> 2f]
[2]; from Brc1cccc(CCCc2ccc(OCCCCOc3ccc(COCc4cccc(Br)n4)cc3)cc2)n1, 26-membered ring, 5.0 h
  ring closure, isolated yield: 76%

## c1cc2nc(c1)-c1cccc(n1)-c1ccc(cc1)OCCCCCCCOc1ccc(cc1)CCC2 [1g -> 2g (DMF-THF 3:1)]
[2]; from Brc1cccc(CCCc2ccc(OCCCCCCCOc3ccc(-c4cccc(Br)n4)cc3)cc2)n1, 26-membered ring, 5.0 h
  ring closure, isolated yield: 66%

## c1cc2cc(c1)-c1cccc(n1)CCCc1ccc(cc1)OCCCCOc1ccc(cc1)COC2 [1i(Br) dibromo precursor -> 2i]
[2]; from Brc1cccc(COCc2ccc(OCCCCOc3ccc(CCCc4cccc(Br)n4)cc3)cc2)c1, 26-membered ring
  ring closure, isolated yield: 16%

## c1cc2nc(c1)-c1cccc(n1)COCc1ccc(cc1)OCCCCOc1ccc(cc1)COC2 [S4 (dichloro analogue of 1b) -> 2b]
[2]; from Clc1cccc(COCc2ccc(OCCCCOc3ccc(COCc4cccc(Cl)n4)cc3)cc2)n1, 26-membered ring
  ring closure, isolated yield: 56%
